Measurements: ChEMBL document CHEMBL5046278, “Synthesis and Evaluation of Novel Tetrahydronaphthyridine CXCR4 Antagonists with Improved Drug-like Profiles” (J Med Chem, 2022)

What was measured:
[1] = Metabolic stability in mouse liver microsomes assessed compound remaining measured after 10 mins in presence of NADPH; assay type: ADME, Microsome; conditions: read-out: Stability
[2] = Permeability of compound at pH 5.5 incubated for 4 hrs by PAMPA assay; assay type: ADME; conditions: read-out: permeability
[3] = Antagonist activity at mAChR (unknown origin) expressed in CCRF-CEM cells assessed as inhibition of calcium release by calcium flux assay; assay type: cell-based; conditions: Homo sapiens
[4] = Metabolic stability in human liver microsomes assessed compound remaining measured after 10 mins in presence of NADPH; assay type: ADME, Microsome; conditions: read-out: Stability
[5] = Antagonist activity at human CXCR4 receptor expressed in CCRF-CEM cells assessed as inhibition of CXCL12-induced calcium release by calcium flux assay; assay type: cell-based
[6] = Permeability of compound at pH 7.4 incubated for 4 hrs by PAMPA assay; assay type: ADME; conditions: read-out: permeability
[7] = Metabolic stability in rat liver microsomes assessed compound remaining measured after 10 mins in presence of NADPH; assay type: ADME, Microsome; conditions: read-out: Stability
Cytochrome P450 2D6 = Cytochrome P450 2D6 (Homo sapiens, UniProt P10635); experiment: Inhibition of recombinant human CYP2D6 using AMMC as substrate preincubated for 30 mins followed by substrate addition measured after 45 mins by fluorescence based assay; assay type: ADME
[8] = target: Kappa-type opioid receptor (Homo sapiens, UniProt P41145); experiment: Inhibition of kappa opioid receptor (unknown origin)
[9] = target: T1, Muscarinic acetylcholine receptor M2 (Homo sapiens, UniProt P08172); experiment: Inhibition of M2 mAChR receptor (unknown origin)
T1 sequence (P08172 whole entry): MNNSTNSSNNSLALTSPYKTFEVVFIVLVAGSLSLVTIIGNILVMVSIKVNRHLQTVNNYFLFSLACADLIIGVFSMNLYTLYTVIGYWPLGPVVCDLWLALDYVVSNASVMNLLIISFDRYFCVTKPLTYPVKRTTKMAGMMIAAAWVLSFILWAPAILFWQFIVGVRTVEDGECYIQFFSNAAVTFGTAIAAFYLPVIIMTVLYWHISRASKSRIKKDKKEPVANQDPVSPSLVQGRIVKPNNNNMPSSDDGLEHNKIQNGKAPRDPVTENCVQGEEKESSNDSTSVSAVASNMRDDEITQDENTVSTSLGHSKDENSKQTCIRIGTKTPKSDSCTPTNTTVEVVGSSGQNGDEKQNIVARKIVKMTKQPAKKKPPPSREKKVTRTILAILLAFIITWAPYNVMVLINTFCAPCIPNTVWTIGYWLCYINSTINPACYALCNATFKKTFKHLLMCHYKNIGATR

D(2) dopamine receptor = D(2) dopamine receptor (Homo sapiens, UniProt P14416); experiment: Inhibition of dopamine D2 receptor (unknown origin)
[10] = target: Neuronal acetylcholine receptor subunit alpha-7 (Homo sapiens, UniProt P36544); experiment: Inhibition of alpha7 nicotinic acetylcholine receptor (unknown origin)
[11] = target: Voltage-gated inwardly rectifying potassium channel KCNH2 (Homo sapiens, UniProt Q12809); experiment: Inhibition of human ERG by [3H]]Astemizole binding assay; assay type: toxicity
[12] = target: T2, Alpha-2C adrenergic receptor (Homo sapiens, UniProt P18825); experiment: Inhibition of alpha 2C adrenergic receptor (unknown origin)
T2 sequence (P18825 whole entry): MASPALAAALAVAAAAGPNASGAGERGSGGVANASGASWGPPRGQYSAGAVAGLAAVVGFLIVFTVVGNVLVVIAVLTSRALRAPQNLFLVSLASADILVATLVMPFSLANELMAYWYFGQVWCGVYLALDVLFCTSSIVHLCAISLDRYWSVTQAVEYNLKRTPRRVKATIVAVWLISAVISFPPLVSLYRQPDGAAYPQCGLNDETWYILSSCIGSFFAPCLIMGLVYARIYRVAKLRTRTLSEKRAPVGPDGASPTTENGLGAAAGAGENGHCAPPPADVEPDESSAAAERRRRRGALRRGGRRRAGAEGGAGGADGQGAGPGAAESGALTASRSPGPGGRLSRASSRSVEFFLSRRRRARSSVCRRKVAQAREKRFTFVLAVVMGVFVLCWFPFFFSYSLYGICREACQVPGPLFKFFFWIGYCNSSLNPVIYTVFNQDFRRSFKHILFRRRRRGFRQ

Mu-type opioid receptor = Mu-type opioid receptor (Homo sapiens, UniProt P35372); experiment: Inhibition of mu opioid receptor (unknown origin)
[13] = target: T3, Alpha-2A adrenergic receptor (Homo sapiens, UniProt P08913); experiment: Inhibition of alpha 2A adrenergic receptor (unknown origin)
T3 sequence (P08913 whole entry): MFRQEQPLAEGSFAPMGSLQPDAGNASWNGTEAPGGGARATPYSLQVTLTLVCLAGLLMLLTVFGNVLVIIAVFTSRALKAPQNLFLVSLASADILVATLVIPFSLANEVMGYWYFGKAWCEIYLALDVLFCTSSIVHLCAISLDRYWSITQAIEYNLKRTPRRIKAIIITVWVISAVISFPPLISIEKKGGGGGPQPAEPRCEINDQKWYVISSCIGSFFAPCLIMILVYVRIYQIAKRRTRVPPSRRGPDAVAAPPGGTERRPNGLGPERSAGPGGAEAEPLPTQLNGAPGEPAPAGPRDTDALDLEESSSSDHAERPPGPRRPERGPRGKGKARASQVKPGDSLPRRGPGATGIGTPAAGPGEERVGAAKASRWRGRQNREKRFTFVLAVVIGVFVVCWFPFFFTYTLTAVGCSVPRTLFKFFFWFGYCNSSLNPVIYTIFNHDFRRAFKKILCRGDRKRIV

Sequence of Cytochrome P450 2D6 (P10635 whole entry): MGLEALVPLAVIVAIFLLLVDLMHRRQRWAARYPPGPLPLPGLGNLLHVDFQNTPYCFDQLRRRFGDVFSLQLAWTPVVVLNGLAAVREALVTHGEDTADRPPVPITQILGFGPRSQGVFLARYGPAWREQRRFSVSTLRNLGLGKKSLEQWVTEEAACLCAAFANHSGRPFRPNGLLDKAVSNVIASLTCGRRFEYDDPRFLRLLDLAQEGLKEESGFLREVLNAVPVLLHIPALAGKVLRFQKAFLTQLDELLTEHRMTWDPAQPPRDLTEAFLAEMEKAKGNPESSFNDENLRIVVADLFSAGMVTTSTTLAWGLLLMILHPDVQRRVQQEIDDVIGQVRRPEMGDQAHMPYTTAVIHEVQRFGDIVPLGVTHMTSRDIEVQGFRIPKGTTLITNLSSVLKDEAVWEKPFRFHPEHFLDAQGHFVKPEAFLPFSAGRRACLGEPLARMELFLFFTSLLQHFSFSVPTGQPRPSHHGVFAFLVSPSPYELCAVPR
Sequence of Voltage-gated inwardly rectifying potassium channel KCNH2 (Q12809 whole entry): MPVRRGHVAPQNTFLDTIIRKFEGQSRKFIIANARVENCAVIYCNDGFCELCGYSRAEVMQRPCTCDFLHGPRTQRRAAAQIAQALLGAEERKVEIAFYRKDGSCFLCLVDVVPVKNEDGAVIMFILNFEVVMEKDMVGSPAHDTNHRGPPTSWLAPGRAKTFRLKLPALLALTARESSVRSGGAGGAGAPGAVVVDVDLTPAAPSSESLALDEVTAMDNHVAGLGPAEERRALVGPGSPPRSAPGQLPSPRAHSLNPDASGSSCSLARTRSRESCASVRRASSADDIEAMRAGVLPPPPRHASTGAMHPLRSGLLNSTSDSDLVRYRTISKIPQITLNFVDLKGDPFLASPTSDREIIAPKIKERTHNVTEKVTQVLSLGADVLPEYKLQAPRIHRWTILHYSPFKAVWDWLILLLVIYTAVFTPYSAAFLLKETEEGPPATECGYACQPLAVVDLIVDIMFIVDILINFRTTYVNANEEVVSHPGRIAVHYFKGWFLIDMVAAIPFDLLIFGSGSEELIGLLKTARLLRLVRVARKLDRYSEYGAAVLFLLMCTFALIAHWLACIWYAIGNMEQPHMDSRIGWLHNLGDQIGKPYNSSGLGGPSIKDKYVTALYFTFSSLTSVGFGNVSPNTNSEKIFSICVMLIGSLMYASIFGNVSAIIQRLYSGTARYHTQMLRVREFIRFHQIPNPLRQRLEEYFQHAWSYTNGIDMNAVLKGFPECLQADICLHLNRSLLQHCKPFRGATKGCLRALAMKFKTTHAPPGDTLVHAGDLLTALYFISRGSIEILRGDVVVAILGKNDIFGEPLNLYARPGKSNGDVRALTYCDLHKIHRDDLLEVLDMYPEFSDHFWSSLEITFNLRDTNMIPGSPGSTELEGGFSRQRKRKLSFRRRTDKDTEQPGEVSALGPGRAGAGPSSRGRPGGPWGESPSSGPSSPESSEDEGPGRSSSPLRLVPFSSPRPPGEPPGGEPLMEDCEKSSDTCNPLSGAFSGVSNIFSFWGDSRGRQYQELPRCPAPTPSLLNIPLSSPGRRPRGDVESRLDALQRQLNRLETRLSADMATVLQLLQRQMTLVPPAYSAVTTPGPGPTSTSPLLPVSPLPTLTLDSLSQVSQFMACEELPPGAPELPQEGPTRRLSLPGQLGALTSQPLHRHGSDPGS
Sequence of Mu-type opioid receptor (P35372 whole entry): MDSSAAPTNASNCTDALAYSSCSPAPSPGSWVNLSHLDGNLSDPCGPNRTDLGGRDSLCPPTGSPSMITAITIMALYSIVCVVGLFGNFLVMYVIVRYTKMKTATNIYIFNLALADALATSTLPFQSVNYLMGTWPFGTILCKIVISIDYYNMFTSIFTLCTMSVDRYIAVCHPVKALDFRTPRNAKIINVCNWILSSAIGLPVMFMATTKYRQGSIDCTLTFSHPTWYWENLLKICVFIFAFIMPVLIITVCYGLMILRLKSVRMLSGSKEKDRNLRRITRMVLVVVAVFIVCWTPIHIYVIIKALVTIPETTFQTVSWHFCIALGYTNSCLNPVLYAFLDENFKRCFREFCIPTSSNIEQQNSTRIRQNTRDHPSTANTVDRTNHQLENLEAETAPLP
Sequence of D(2) dopamine receptor (P14416 whole entry): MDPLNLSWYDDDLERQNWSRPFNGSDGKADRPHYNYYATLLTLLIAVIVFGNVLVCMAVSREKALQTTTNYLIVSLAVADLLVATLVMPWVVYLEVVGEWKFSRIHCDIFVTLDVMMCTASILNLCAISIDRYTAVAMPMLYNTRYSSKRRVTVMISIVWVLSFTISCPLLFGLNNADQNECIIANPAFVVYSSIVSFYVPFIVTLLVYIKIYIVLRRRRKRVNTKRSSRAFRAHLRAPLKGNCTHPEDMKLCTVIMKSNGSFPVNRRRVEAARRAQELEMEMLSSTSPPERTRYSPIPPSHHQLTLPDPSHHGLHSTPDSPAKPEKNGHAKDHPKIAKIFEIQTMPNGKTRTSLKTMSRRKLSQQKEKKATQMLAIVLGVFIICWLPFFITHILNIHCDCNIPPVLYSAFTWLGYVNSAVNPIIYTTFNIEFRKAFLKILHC
Sequence of Kappa-type opioid receptor (P41145 whole entry): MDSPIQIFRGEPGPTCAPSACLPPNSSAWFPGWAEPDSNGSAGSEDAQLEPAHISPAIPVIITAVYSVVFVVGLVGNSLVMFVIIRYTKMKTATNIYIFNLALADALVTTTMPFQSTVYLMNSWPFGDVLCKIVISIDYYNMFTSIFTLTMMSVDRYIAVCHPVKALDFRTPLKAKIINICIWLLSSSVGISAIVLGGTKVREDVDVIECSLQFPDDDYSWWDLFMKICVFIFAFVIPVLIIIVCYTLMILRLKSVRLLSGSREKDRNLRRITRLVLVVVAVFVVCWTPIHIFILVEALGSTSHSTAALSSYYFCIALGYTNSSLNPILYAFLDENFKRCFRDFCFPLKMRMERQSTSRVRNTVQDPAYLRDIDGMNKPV
Sequence of Neuronal acetylcholine receptor subunit alpha-7 (P36544 whole entry): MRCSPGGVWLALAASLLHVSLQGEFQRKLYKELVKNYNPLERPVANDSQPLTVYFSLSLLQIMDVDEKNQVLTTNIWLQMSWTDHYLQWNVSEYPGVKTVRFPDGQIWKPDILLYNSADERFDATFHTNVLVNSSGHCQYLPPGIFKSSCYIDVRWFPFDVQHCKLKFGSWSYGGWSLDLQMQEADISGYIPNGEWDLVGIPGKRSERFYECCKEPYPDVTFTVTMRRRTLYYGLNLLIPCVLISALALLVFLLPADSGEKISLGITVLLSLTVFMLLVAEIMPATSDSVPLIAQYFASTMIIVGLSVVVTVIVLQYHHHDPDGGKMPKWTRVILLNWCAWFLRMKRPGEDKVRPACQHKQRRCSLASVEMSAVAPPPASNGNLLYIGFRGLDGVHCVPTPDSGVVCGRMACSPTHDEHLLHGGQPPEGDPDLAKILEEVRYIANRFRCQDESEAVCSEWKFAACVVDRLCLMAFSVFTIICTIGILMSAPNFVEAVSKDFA

Row | SMILES | remaining at 10 min [1] | Papp at 4 h [2] | IC50 [3] | remaining at 10 min [4] | IC50 [5] | Papp at 4 h [6] | remaining at 10 min [7] | IC50 (Cytochrome P450 2D6) | IC50 [8] | IC50 [9] | IC50 (D(2) dopamine receptor) | IC50 [10] | IC50 [12] | IC50 (Mu-type opioid receptor) | IC50 [13] | IC50 [11]
1 | CCN(CC)CCCCN(C[C@H]1Cc2ncccc2CN1)[C@H]1CCCc2cccnc21 | 1% | 0.3 ×10⁻⁶ cm/s | > 17 µM | 80% | 390 nM | 24 ×10⁻⁶ cm/s | 6% | 10 µM | – | – | – | – | – | – | – | –
2 | c1cnc2c(c1)CN[C@@H](CN(CCCCNC1CCOCC1)[C@H]1CCCc3cccnc31)C2 | 35% | 0.2 ×10⁻⁶ cm/s | > 17 µM | 97% | 7.2 nM | 0.8 ×10⁻⁶ cm/s | 49% | > 20 µM | 4.3 µM | > 30 µM | > 30 µM | > 30 µM | > 30 µM | 20 µM | > 30 µM | > 50 µM
3 | NCCCCN(C[C@@H]1Cc2ncccc2CN1)[C@H]1CCCc2cccnc21 | 75% | 0.2 ×10⁻⁶ cm/s | – | 98% | 550 nM | 0.7 ×10⁻⁶ cm/s | 55% | 9.7 µM | – | – | – | – | – | – | – | –
4 | NCCCCN(C[C@@H]1Cc2cccnc2CN1)[C@H]1CCCc2cccnc21 | 25% | – | – | 92% | 220 nM | 7.7 ×10⁻⁶ cm/s | 37% | 4.4 µM | – | – | – | – | – | – | – | –
5 | NCCCCN(C[C@H]1Cc2nccnc2CN1)[C@H]1CCCc2cccnc21 | 77% | 0.2 ×10⁻⁶ cm/s | < 33 µM | 84% | 42 nM | 0.2 ×10⁻⁶ cm/s | 50% | > 20 µM | – | – | – | – | – | – | – | –
6 | c1cnc2c(c1)CN[C@@H](CN(CCCC1CCNCC1)[C@H]1CCCc3cccnc31)C2 | 69% | 1.4 ×10⁻⁶ cm/s | > 33 µM | 100% | 35 nM | 2.4 ×10⁻⁶ cm/s | 40% | > 20 µM | 4.8 µM | > 30 µM | 9.8 µM | 17 µM | 2.2 µM | > 30 µM | – | 9.3 µM
7 | NC(=O)NCCCCN(C[C@H]1Cc2ncccc2CN1)[C@H]1CCCc2cccnc21 | 32% | 0.7 ×10⁻⁶ cm/s | > 17 µM | 91% | 930 nM | 0.2 ×10⁻⁶ cm/s | 1% | 13 µM | – | – | – | – | – | – | – | –
8 | NCCCCN(C[C@H]1Cc2ccccc2CN1)[C@H]1CCCc2cccnc21 | – | 0.6 ×10⁻⁶ cm/s | < 30 µM | – | – | – | – | – | 1.6 µM | – | 5.7 µM | > 30 µM | 23 µM | – | – | –
9 | NCc1ccc(CN(C[C@H]2Cc3ncccc3CN2)[C@H]2CCCc3cccnc32)cc1 | 53% | 2 ×10⁻⁶ cm/s | 26 µM | 100% | 110 nM | 6.9 ×10⁻⁶ cm/s | 78% | 2.7 µM | – | – | – | – | – | – | – | –
10 | CN(C)CCCCN(C[C@H]1Cc2ncccc2CN1)[C@H]1CCCc2cccnc21 | 55% | 0.2 ×10⁻⁶ cm/s | > 17 µM | 100% | 270 nM | 24 ×10⁻⁶ cm/s | 27% | 10 µM | – | – | – | – | – | – | – | –

Further lines, with some results ahead:

Row | remaining at 10 min [1] | Papp at 4 h [2] | IC50 [3] | remaining at 10 min [4] | IC50 [5] | Papp at 4 h [6] | remaining at 10 min [7] | IC50 (Cytochrome P450 2D6) | IC50 [8] | IC50 [9] | IC50 (D(2) dopamine receptor) | IC50 [10] | IC50 [12] | IC50 (Mu-type opioid receptor) | IC50 [13] | SMILES | IC50 [11]
11 | 10% | 0.5 ×10⁻⁶ cm/s | > 17 µM | 100% | 460 nM | 0.2 ×10⁻⁶ cm/s | 1% | 20 µM | – | – | – | – | – | – | – | NC(=O)NC/C=C\CN(C[C@H]1Cc2ncccc2CN1)[C@H]1CCCc2cccnc21 | –
12 | 73% | 0.2 ×10⁻⁶ cm/s | – | 87% | 130 nM | 0.2 ×10⁻⁶ cm/s | 67% | > 20 µM | – | – | – | – | – | – | – | NCCCCN(C[C@@H]1Cc2nccnc2CN1)[C@H]1CCCc2cccnc21 | –
13 | 86% | 1.7 ×10⁻⁶ cm/s | – | 100% | 11 nM | 1.4 ×10⁻⁶ cm/s | 64% | 12 µM | 1.1 µM | 8.7 µM | 9.4 µM | 1.7 µM | 13 µM | > 30 µM | 11 µM | NCCCCN(C[C@H]1Cc2ncccc2CN1)[C@H]1CCCc2cccnc21 | 5.8 µM
14 | 37% | 2.8 ×10⁻⁶ cm/s | 0.18 µM | 85% | 26 nM | 6.8 ×10⁻⁶ cm/s | 11% | 13 µM | – | – | – | – | – | – | – | NC/C=C\CN(C[C@H]1Cc2ncccc2CN1)[C@H]1CCCc2cccnc21 | –
15 | 0% | 23 ×10⁻⁶ cm/s | < 17 µM | 100% | > 33000 nM | 100 ×10⁻⁶ cm/s | 1% | 2.7 µM | – | – | – | – | – | – | – | CN(C[C@@H]1Cc2ncccc2CN1)[C@H]1CCCc2cccnc21 | –
16 | 53% | 46 ×10⁻⁶ cm/s | < 17 µM | 95% | 480 nM | 130 ×10⁻⁶ cm/s | 7% | 2.8 µM | – | – | – | – | – | – | – | CN(C[C@H]1Cc2ncccc2CN1)[C@H]1CCCc2cccnc21 | –
17 | 69% | 0.2 ×10⁻⁶ cm/s | – | 96% | 12 nM | 0.6 ×10⁻⁶ cm/s | 49% | 4 µM | 4 µM | 30 µM | 10 µM | – | 30 µM | > 30 µM | 1.3 µM | NCCCCN(C[C@H]1Cc2cccnc2CN1)[C@H]1CCCc2cccnc21 | 5.4 µM
18 | 33% | 6.2 ×10⁻⁶ cm/s | > 33 µM | 62% | 3000 nM | 32 ×10⁻⁶ cm/s | 72% | > 20 µM | – | – | – | – | – | – | – | c1cnc2c(c1)CN[C@@H](CN(CCCCN(C1COC1)C1COC1)[C@H]1CCCc3cccnc31)C2 | –
19 | 37% | 0.2 ×10⁻⁶ cm/s | 28 µM | 85% | 150 nM | 1.5 ×10⁻⁶ cm/s | 11% | 0.7 µM | – | – | – | – | – | – | – | NC/C=C/CN(C[C@H]1Cc2ncccc2CN1)[C@H]1CCCc2cccnc21 | –
20 | 47% | – | 31 µM | 88% | 29 nM | 5.2 ×10⁻⁶ cm/s | 10% | 15 µM | – | – | – | – | – | – | – | FC1(F)CCC(NCCCCN(C[C@H]2Cc3ncccc3CN2)[C@H]2CCCc3cccnc32)CC1 | –
21 | 19% | 0.6 ×10⁻⁶ cm/s | > 17 µM | 93% | 430 nM | 0.2 ×10⁻⁶ cm/s | 1% | 18 µM | – | – | – | – | – | – | – | NC(=O)NC/C=C/CN(C[C@H]1Cc2ncccc2CN1)[C@H]1CCCc2cccnc21 | –
